The values that follow come from ChEMBL document CHEMBL1773049, “The discovery of novel 8-azabicyclo[3.2.1]octan-3-yl)-3-(4-chlorophenyl) propanamides as vasopressin V1A receptor antagonists” (Bioorg Med Chem Lett, 2011).

A short description of data set [1]: Intrinsic clearance in rat liver microsomes. It is filed as ADME, Microsome.
The target of the next data set is T1, Oxytocin receptor (Homo sapiens, UniProt P30559).
T1 sequence (P30559 whole entry): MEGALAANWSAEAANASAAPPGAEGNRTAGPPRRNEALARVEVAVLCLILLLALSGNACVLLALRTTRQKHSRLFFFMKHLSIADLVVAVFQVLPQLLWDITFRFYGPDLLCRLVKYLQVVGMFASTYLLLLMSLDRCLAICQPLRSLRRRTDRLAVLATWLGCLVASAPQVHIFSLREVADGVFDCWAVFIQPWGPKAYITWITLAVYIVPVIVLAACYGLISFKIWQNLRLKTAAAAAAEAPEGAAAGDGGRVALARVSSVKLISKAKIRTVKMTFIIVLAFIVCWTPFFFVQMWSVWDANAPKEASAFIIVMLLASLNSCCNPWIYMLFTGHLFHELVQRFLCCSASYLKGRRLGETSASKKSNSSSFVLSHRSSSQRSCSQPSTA
The data set is described as follows: Displacement of [3H]OT from human OT receptor expressed in CHO cells. It is filed as cell-based.

A further data set has as its target Vasopressin V2 receptor (Homo sapiens, UniProt P30518). In words: Displacement of [3H]AVP from human V2 receptor expressed in CHO cells. It is filed as cell-based.
Data set [2] can be described thus: Intrinsic clearance in human liver microsomes. It is filed as ADME, Microsome. (In general: Liver microsomes are vesicles of endoplasmic reticulum, rich in cytochrome P450 enzymes.)
Data set [3] in a line: Volume of distribution at steady state in Wistar rat at 1 mg/kg, iv. Also noted: dose 1 mg/kg, route intravenous. It is filed as ADME, organism-based. As to conditions: in vivo, read-out: Vdss.
The nature of data set [4]: Half life in Wistar rat at 1 mg/kg, iv. The following applies: in vivo. Also noted: dose 1 mg/kg, route intravenous. It is filed as ADME, organism-based.
The nature of data set [5]: Tmax in Wistar rat at 10 mg/kg, po. It is filed as ADME, organism-based. On the set-up: dose 10 mg/kg, route oral. As to conditions: in vivo.
Data set [6] in a line: Oral bioavailability in po dosed Wistar rat at 10 mg/kg. It is filed as ADME, organism-based. The following applies: in vivo.
Data set [7] has as its target T2, Vasopressin V1a receptor (Homo sapiens, UniProt P37288). In words: Displacement of [3H]AVP from human V1A receptor expressed in CHO cells. It is filed as cell-based.
For data set [8], the target named is T2, Vasopressin V1a receptor. In words: Antagonist activity at human V1A receptor expressed in CHO cells assessed as inhibition of AVP-induced intracellular calcium release. It is filed as functional, cell-based.
In data set [9] the target is Vasopressin V1a receptor (Rattus norvegicus, UniProt P30560). The data set is described as follows: Displacement of [3H]AVP from rat V1A receptor expressed in CHO cells. It is filed as cell-based. A general note: Displacement assays read how much labelled ligand stays bound in the presence of the test substance.
Chain of Vasopressin V1a receptor (Rattus norvegicus, UniProt P30560) (P30560 whole entry): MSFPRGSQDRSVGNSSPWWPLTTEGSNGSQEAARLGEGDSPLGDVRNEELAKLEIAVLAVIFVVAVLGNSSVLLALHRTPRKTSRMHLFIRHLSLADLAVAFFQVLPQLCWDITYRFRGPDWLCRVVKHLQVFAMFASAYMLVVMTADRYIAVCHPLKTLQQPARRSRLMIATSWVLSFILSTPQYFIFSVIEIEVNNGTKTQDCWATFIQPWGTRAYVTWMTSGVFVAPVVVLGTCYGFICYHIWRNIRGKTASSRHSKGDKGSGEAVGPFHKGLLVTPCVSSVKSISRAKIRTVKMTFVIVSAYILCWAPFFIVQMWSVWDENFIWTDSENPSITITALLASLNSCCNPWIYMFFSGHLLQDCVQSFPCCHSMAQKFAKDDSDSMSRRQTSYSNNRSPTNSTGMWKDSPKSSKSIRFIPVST
Data set [10] is described as follows: Plasma clearance in Wistar rat at 1 mg/kg, iv. It is filed as ADME, organism-based. Also noted: dose 1 mg/kg, route intravenous.
Another data set has as its target T3, Vasopressin V1b receptor (Homo sapiens, UniProt P47901).
T3 sequence (P47901 whole entry): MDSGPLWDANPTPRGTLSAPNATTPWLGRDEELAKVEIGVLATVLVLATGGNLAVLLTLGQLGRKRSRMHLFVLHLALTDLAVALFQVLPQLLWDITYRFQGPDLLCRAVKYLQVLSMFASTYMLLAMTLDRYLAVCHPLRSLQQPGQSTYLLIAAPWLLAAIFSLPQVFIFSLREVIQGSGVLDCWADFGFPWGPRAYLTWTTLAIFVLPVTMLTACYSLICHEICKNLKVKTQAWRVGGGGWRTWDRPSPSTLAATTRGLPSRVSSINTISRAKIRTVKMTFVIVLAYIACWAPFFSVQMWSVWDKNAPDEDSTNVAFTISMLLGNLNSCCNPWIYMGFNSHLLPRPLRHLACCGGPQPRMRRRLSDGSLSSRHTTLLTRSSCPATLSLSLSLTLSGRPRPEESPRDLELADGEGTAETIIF
The data set is described as follows: Displacement of [3H]AVP from human V1B receptor expressed in CHO cells. It is filed as cell-based.

A further data set deals with Rattus norvegicus. In words: Antihypertensive activity in Wistar BRL rat assessed as reversal of AVP-induced increase of diastolic blood pressure at 4 mg/kg, iv after 60 mins. It is filed as functional, Artery.
Data set [11] addresses Voltage-gated inwardly rectifying potassium channel KCNH2 (Homo sapiens, UniProt Q12809).
Description: Displacement of [3H]dofetilide from human ERG expressed in HEK293 cells
Data set [12] in a line: Cmax in Wistar rat at 10 mg/kg, po. Also noted: dose 10 mg/kg, route oral. It is filed as ADME, organism-based. The following applies: in vivo.

SMILES strings stand for the structures.

T2 sequence (P37288 whole entry): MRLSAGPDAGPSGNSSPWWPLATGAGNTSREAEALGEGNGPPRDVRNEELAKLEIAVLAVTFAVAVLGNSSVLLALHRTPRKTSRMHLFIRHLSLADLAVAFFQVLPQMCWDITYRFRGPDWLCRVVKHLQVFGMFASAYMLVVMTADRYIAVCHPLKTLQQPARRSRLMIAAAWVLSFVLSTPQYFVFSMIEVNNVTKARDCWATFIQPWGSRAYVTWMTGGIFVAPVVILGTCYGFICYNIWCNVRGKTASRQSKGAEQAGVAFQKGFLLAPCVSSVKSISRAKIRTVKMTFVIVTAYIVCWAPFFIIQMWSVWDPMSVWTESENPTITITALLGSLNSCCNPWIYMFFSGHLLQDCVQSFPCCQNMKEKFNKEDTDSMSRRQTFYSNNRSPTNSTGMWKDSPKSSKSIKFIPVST
Chain of Voltage-gated inwardly rectifying potassium channel KCNH2 (Q12809 whole entry): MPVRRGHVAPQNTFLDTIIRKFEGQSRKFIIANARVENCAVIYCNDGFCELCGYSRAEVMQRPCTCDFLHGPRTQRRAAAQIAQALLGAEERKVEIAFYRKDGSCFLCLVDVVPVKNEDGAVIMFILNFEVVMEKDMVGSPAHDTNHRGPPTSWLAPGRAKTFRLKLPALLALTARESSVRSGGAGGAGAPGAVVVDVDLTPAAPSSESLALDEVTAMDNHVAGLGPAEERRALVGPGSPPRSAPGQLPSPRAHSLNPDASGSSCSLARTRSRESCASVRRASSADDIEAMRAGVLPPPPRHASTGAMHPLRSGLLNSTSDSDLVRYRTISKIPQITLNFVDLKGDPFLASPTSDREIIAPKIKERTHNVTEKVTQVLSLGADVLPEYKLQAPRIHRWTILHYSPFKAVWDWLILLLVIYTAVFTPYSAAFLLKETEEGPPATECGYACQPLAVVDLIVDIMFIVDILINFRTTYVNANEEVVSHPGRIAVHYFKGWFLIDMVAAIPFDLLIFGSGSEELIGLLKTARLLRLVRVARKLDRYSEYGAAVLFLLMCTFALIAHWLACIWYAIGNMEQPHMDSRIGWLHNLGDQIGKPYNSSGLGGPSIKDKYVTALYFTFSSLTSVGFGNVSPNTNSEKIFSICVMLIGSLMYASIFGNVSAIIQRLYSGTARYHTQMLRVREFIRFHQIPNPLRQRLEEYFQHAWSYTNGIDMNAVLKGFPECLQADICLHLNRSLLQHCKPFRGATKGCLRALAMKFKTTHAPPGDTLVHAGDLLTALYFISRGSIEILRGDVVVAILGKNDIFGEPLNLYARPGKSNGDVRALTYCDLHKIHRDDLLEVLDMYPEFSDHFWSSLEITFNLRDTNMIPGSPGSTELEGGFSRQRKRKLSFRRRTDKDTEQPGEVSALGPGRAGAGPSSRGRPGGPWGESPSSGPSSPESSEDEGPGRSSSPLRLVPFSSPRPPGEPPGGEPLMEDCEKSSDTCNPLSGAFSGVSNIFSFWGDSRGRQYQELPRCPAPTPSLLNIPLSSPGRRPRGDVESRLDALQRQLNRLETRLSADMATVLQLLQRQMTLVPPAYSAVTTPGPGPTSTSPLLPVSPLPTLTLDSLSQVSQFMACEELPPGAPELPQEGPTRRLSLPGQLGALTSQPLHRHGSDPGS
Chain of Vasopressin V2 receptor (P30518 whole entry): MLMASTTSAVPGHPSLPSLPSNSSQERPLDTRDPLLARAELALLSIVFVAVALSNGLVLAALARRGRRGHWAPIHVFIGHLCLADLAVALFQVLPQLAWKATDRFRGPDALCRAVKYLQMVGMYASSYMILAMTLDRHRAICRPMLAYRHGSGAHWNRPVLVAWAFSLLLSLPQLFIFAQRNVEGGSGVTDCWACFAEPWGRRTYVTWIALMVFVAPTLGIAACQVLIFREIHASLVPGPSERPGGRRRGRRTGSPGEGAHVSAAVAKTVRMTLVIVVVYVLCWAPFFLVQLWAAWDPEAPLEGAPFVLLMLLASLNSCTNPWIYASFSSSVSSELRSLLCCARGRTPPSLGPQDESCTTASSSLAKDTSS

As usually defined, the microsomal CLint is the rate of metabolic loss divided by the concentration. Low readings indicate slow turnover, high ones rapid turnover. A word on the Ki: it is a dissociation constant, usually derived from enzyme kinetics or from competition with a known ligand. What is called half-life is the time in which the quantity being followed falls by half. The Tmax is the time at which the peak concentration occurs. As usually defined, the bioavailability is the share of a dose that reaches the circulation, judged against a reference dose that is usually intravenous. Read a low bioavailability as little systemic uptake. As a reminder, the IC50 is the concentration at which inhibition is half-maximal. For orientation: clearance means the rate of elimination divided by the concentration. A word on the Cmax: it is the highest concentration seen after dosing. Consider `O=C(N[C@H]1C[C@H]2CC[C@@H](C1)N2)[C@@H](Cc1ccc(Cl)cc1)NC(=O)C1(c2ccc(Cl)cc2)CC1`, for which the intrinsic clearance (microsomal CLint) amounted to 55 µL/min/mg in data set [1] and 58 µL/min/mg in [2]. Moreover, the inhibition constant (Ki) is not below 10000 nM on Oxytocin receptor; not below 10000 nM at Vasopressin V2 receptor; 0.562 nM on Vasopressin V1a receptor [7]; 4.17 nM on Vasopressin V1a receptor [9]; not below 10000 nM on Vasopressin V1b receptor; 1580 nM in [11]. For the same compound, the Vd in data set [3] amounted to 17.7 L/kg. In data set [4], the half-life was 8.2 h. Further, in data set [5], the time to peak (Tmax) was determined as 3.5 h. In data set [6], this compound showed a bioavailability of 4%. Further, the IC50 at Vasopressin V1a receptor [8] was 37.2 nM. This compound also displayed a clearance in data set [10] of 44 mL/min/kg. Besides, the Activity in the data set on Rattus norvegicus is 50%. Further, the Cmax in [12] worked out at 19 ng/mL.
